{"source": "paper PMC11992225", "about": "“Antibacterial compounds against non-growing and intracellular bacteria” (npj Antimicrobials and Resistance, 2025)", "key": {"[1]": {"test_system": "P. aeruginosa DSM1117", "experiment": "MIC, standard microdilution assay, growing P. aeruginosa", "assay_type": "cell-based, Pseudomonas aeruginosa", "settings": "Pseudomonas aeruginosa, DSM1117, P. aeruginosa", "summary_of_the_method": "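Each strain was exposed to serially diluted compound in broth, in triplicate. The media were TSB for Shigella; CA-MHB at pH 7.4 (HEPES 40 mM) for S. aureus, P. aeruginosa and UPEC; and, for UPEC only, low-pH LPM (pH 5.5, 30 mM MES).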"}, "[2]": {"test_system": "non-growing UPEC CFT073", "experiment": "Dilution-regrowth assay (screen, hit validation, dose-response) on stationary-phase UPEC", "assay_type": "cell-based, Escherichia coli", "settings": "Escherichia coli; E. coli, pH 7.4; regrowth delay of non-growing bacteria, 1:4 CA-MHB, 24 h treatment, OD600 6 h after 2500-fold dilution; read-out: EC50", "summary_of_the_method": "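Regrowth (OD600 after 6 h, 37 °C) of diluted non-growing CFT073, following 24 h compound treatment of 24 h stationary cultures, defines activity relative to untreated control. Screen at 20 µM, validation at 20, 10, 5 µM (duplicates), dose–response in three biological replicates fitted by five-parameter logistic.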"}, "[3]": {"test_system": "non-growing S. aureus DSM2569", "experiment": "Dilution-regrowth assay (OD600, start-growth-time) on stationary-phase S. aureus", "assay_type": "cell-based, Staphylococcus aureus", "settings": "S. aureus", "summary_of_the_method": "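Non-growing S. aureus was tested in a dilution-regrowth format. Cells were cultured and treated for 24 h in 1:4 diluted CA-MHB, pH 7.4, then diluted into drug-free medium, and OD600 was measured every 20 min. Start-growth-time was the time OD600 passed 0.12. Dose-response curves were fitted with a five-parameter logistic equation to derive EC50.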"}, "[4]": {"test_system": "non-growing P. aeruginosa DSM1117", "experiment": "Dose-dependent killing analysis (CFU spot-plating) of stationary-phase P. aeruginosa", "assay_type": "cell-based, Pseudomonas aeruginosa", "summary_of_the_method": "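Viability by CFU: samples serially diluted 10-fold in PBS, spotted on LB agar, grown overnight at 37 °C, and colonies counted at the lowest resolvable dilution. Non-growing P. aeruginosa DSM1117 had been dosed for 24 h in 1:4 CA-MHB (pH 7.4); three biological replicates.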"}}, "note": "Like-named read-outs stand apart in the source and are kept apart here."}
{"smiles": "NC1CCN(c2c(F)cc3c(=O)c(C(=O)O)cn(C4CC4)c3c2Cl)C1", "note": "(stereo not shown) [Clinafloxacin]", "values": [{"measurement": "MIC", "setting": "[1]; 1:4 diluted CA-MHB pH 7.4, read-out: MIC (μM) 1:4 CA-MHB", "value": 0.25, "unit": "µM"}, {"measurement": "MIC", "setting": "[1]; CA-MHB pH 7.4, read-out: MIC (μM) CA-MHB", "value": 0.5, "unit": "µM"}, {"measurement": "EC50", "setting": "[2]", "value": 906, "unit": "nM"}, {"measurement": "OD600 at 6h or 8h after dilution into drug-free medium (regrowth)", "setting": "[3]; drug conc 0.1", "value": 0.489}, {"measurement": "OD600 at 6h or 8h after dilution into drug-free medium (regrowth)", "setting": "[3]; drug conc 0.5", "value": 0.280}, {"measurement": "OD600 at 6h or 8h after dilution into drug-free medium (regrowth)", "setting": "[3]; drug conc 2.5", "value": 0.154}, {"measurement": "OD600 at 6h or 8h after dilution into drug-free medium (regrowth)", "setting": "[3]; drug conc 10", "value": 0.126}, {"measurement": "EC50", "setting": "[3]; Staphylococcus aureus, DSM2569, regrowth delay of non-growing bacteria, 1:4 CA-MHB pH 7.4, 24 h treatment, OD600 8 h after dilution, read-out: EC50", "value": 205, "unit": "nM"}, {"measurement": "reduction of bacterial counts, stationary phase P. aeruginosa", "setting": "[4]; at 0.5 µM, 24 h treatment", "value": "more than four"}, {"measurement": "reduction of bacterial counts, non-growing P. aeruginosa", "setting": "[4]; at 2.5 µM, 1:4 CA-MHB pH 7.4, 24 h treatment", "value": "more than four"}]}
